Assay results taken from patent US20060188507A1, “Methods for identifying chemotherapeutic resistance in non-hematopoietic tumors” (priority 2005, published 2006).
Like-named read-outs stand apart in the source and are kept apart here.

Columns and labels:
p16^INK4a protein = experiment: p16 induction after short-term adriamycin exposure (modified SITp16), MCF7 cells; format: cell-based, human; settings: 50 nM adriamycin, 36 hour treatment (FIG. 9)
Method: Finally, in a modification of the SITp16, an experiment was performed to determine if p16 expression was induced following a short-term exposure of adriamycin-sensitive cells to adriamycin. For these studies, MCF7 cells were treated 3 days with the EC50 amount of adriamycin (i.e., the effective concentration median or middle of a dose response curve -for MCF7 cells and adriamycin, this is 40 nM. (Note that EC50 is the effective concentration median or middle of a dose response curve, while IC50=inhibitory concentrations by 50%. Total cell lysates (i.e., extracts) were then prepared from these adriamycin-treated cells (called MCF7 EC50 Doxo), as well as from an equal number of MCF7 cells (drug sensitive), MCF7/AR (adriamycin-resistant cells), and OVCAR3 cells (an ovarian cancer cell line from a patient who was treated with adriamycin). The lysates were resolved by SDS-PAGE, transferred to a nitrocellulose membrane, and probed with p16^INK4a specific monoclonal antibody (α-p16^INK4a (Ab-4, Neomarkers clone 16P04, JC2 commercially available from Lab Vision, Freemont, Calif.).
Studies were next performed to determine if a short duration of exposure to adriamycin would cause upregulation of p16 expression in MCF7 cells. […]

HeLa cells = experiment: cells; format: cell-based; settings: Homo sapiens, HeLa, read-out: IC50 Results (MTT)
Method: III. MTT Cytotoxicity Assays. 24 hours post-transfection, siRNA transfected cells were seeded into 96-well plates at 3×10^3 cells/well. The cells were incubated for 16-24 hours. A range of concentrations of the indicated cytotoxic drugs was added and incubation was continued for an additional 48 hours. 20 μL of MTT (10 mg/mL) was added to each well and the plates were further incubated at 37° C. for 4 hours. The dye was solubilized with DMSO and absorbance measured at 570 nm using a multiwell plate reader (WALLAC). The results were expressed as the average of duplicate wells using the plate reader's Prism software (GraphPad).
Using the MTT cytotoxicity assay (as described in Example 3), the IC50 (i.e., the concentration at which 50% of the cells are still viable) of HeLa cells transfected with p16 siRNA for various chemotherapeutic agents was next assessed.

MDA-MB-231 cells = experiment: Adriamycin sensitivity of MDA-MB-231 cells; format: cell-based, human; settings: MDA-MB-231 parental line
Method: The cells are allowed to attach to the plate overnight and then the media is replaced with media containing an different concentrations of ADR (0 nM, 10 nM, 20 nM, 50 nM, 100 nM, 400 nM, 500 nM, 1 μM, 5 μM, and 10 μM) and the cells are then incubated at 37° C. for 4 days. […] The colonies are the counted and the results expressed as the level of ADR resistance in nM (e.g., ≦400 nM), or EC50, in which 50% of the cells were still alive.

MCF7 cells = experiment: Adriamycin sensitivity of MCF7 cells; settings: for EC50: Homo sapiens

Q: Which results are given for `COc1cccc2c1C(=O)c1c(O)c3c(c(O)c1C2=O)C[C@@](O)(C(=O)CO)C[C@@H]3O[C@H]1C[C@H](N)[C@H](O)[C@H](C)O1` [Doxorubicin, doxorubicin]?
A: upregulation of p16 expression after short exposure (p16^INK4a protein): did not result in these cells' upregulation of p16 expression; IC50 (HeLa cells; HeLa cells transfected with GFP siRNA): 113 nM; IC50 (HeLa cells; HeLa cells transfected with P16 siRNA (p16 siRNA I)): 70.4 nM; ADR concentration to which cell line is sensitive (MDA-MB-231 cells): approximately 200 nM; EC50 (MCF7 cells; MCF7, read-out: EC50 (effective concentration median of dose response curve)): 40 nM; EC50 (MCF7 cells; MCF7, read-out: concentration known to kill 50% of MCF7 drug-sensitive cells): 50 nM; ADR concentration to which cell line is sensitive (MCF7 cells; MCF7 parental line): approximately 80 nM
